Test results as given in patent US20250171452A1 (Viscient Bio, Inc., priority 2022, published 2025).
Like-named read-outs stand apart in the source and are kept apart here.

Tests used:
[1] = molecular target: IDO2 (Homo sapiens (Human), UniProt Q6ZQW0); assay: Cellular IDO2 assay, doxycycline and 5-methoxy-L-tryptophan medium, colorimetric; type: cell-based
[2] = molecular target: Indoleamine 2,3-dioxygenase 1 (IDO1) (Homo sapiens (Human), UniProt P14902); assay: Cellular IDO1 assay: kynurenine production in IFN-γ-stimulated HeLa cells, colorimetric
Indoleamine 2,3-dioxygenase 1 (IDO1), sequence (P14902 whole entry): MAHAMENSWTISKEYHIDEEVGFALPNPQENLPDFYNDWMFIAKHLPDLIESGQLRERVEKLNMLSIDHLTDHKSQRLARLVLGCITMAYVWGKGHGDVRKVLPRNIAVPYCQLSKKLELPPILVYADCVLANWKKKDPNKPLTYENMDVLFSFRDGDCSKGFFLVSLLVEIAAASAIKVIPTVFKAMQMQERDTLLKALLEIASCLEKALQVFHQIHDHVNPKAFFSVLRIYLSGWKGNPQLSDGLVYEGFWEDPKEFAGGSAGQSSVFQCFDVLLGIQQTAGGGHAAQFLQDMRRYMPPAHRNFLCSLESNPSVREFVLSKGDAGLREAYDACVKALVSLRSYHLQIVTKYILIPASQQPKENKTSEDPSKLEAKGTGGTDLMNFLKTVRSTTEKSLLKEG

[3] = cellular level, 72 h incubation, signal at 480 nm

IDO2, sequence (Q6ZQW0 whole entry, species assumed): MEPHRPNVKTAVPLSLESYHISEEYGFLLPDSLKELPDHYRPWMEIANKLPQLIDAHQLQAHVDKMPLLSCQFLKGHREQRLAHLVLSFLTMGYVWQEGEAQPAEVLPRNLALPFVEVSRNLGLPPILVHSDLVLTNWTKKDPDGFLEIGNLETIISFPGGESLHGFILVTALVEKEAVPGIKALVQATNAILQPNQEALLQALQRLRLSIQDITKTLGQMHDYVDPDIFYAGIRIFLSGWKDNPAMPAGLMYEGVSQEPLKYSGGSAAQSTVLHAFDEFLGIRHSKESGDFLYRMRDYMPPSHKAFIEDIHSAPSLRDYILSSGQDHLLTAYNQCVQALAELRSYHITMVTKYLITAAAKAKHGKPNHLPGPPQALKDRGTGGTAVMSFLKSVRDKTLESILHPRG

| IC50 [1, 3] [nM] | IC50 [2] [nM] | SMILES | IC50 [1] [nM] |
| --- | --- | --- | --- |
| 50 to 500 | < 50 | Cc1ccc2c(=O)n3c(nc2c1)C(=O)c1cc([N+](=O)[O-])ccc1-3 [Compound 1, 3-Methyl-8-nitroindolo[2,1-b]quinazoline-6,12-dione] | – |
| < 50 | < 50 | O=C1c2cc([N+](=O)[O-])ccc2-n2c1nc1cc(F)ccc1c2=O [Compound 2, 3-Fluoro-8-nitroindolo[2,1-b]quinazoline-6,12-dione] | – |
| < 50 | < 50 | N#Cc1ccc2c(c1)C(=O)c1nc3cc(Cl)ccc3c(=O)n1-2 [Compound 3, 3-Chloro-6,12-dioxo-6,12-dihydroindolo[2,1-b]quinazoline-8-carbonitrile] | – |
| 50 to 500 | > 500 | Nc1ccc2c(c1)C(=O)c1nc3cc(Cl)ccc3c(=O)n1-2 [Compound 5, 8-Amino-3-chloroindolo[2,1-b]quinazoline-6,12-dione] | – |
| 50 to 500 | 50 to 500 | COC(=O)c1ccc2c(c1)C(=O)c1nc3cc(Cl)ccc3c(=O)n1-2 [Compound 6, Methyl 3-chloro-6,12-dioxo-6,12-dihydroindolo[2,1-b]quinazoline-8-carboxylate] | – |
| 50 to 500 | 50 to 500 | CC(=O)Nc1ccc2c(c1)C(=O)c1nc3cc(Cl)ccc3c(=O)n1-2 [Compound 7, N-(3-Chloro-6,12-dioxo-6,12-dihydroindolo[2,1-b]quinazolin-8-yl)acetamide] | – |
| 50 to 500 | 50 to 500 | NC(=O)c1ccc2c(c1)C(=O)c1nc3cc(Cl)ccc3c(=O)n1-2 [Compound 8, 3-Chloro-6,12-dioxo-6,12-dihydroindolo[2,1-b]quinazoline-8-carboxamide] | – |
| 50 to 500 | > 500 | NCCNC(=O)c1ccc2c(c1)C(=O)c1nc3cc(Cl)ccc3c(=O)n1-2 [Compound 10, N-(2-Aminoethyl)-3-chloro-6,12-dioxo-6,12-dihydroindolo[2,1-b]quinazoline-8-carboxamide] | – |
| < 50 | < 50 | N#Cc1ccc2c(c1)C(=O)c1nc3cc(F)ccc3c(=O)n1-2 [Compound 12, 3-Fluoro-6,12-dioxo-6,12-dihydroindolo[2,1-b]quinazoline-8-carbonitrile] | – |
| > 500 | > 500 | NS(=O)(=O)NCCNC(=O)c1ccc2c(c1)C(=O)c1nc3cc(Cl)ccc3c(=O)n1-2 [Compound 13, 3-Chloro-6,12-dioxo-N-(2-(sulfamoylamino)ethyl)-6,12-dihydroindolo[2,1-b]quinazoline-8-carboxamide] | – |
| < 50 | 50 to 500 | CS(=O)(=O)c1ccc2c(c1)C(=O)c1nc3cc(F)ccc3c(=O)n1-2 [Compound 14, 3-Fluoro-8-(methylsulfonyl)indolo[2,1-b]quinazoline-6,12-dione] | – |
| 50 to 500 | 50 to 500 | CN1CCN(Cc2ccc3c(=O)n4c(nc3c2)C(=O)c2cc(F)ccc2-4)CC1 [Compound 15, 8-Fluoro-3-((4-methylpiperazin-1-yl)methyl)indolo[2,1-b]quinazoline-6,12-dione] | – |
| < 50 | 50 to 500 | Nc1ccc2c(=O)n3c(nc2c1)C(=O)c1cc([N+](=O)[O-])ccc1-3 [Compound 16, 3-Amino-8-nitroindolo[2,1-b]quinazoline-6,12-dione] | – |
| < 50 | 50 to 500 | CC(C)(C)OC(=O)Nc1ccc2c(=O)n3c(nc2c1)C(=O)c1cc([N+](=O)[O-])ccc1-3 [Compound 17, tert-Butyl (8-nitro-6,12-dioxo-6,12-dihydroindolo[2,1-b]quinazolin-3-yl)carbamate] | – |
| 50 to 500 | > 500 | O=C1c2cc(Br)ccc2-n2c1nc1cc(F)ccc1c2=O [Compound 18, 8-Bromo-3-fluoroindolo[2,1-b]quinazoline-6,12-dione] | – |
| > 500 | > 500 | NCCNC(=O)c1ccc2c(c1)C(=O)c1nc3cc(Cl)cc(Cl)c3c(=O)n1-2 [Compound 19, N-(2-Aminoethyl)-1,3-dichloro-6,12-dioxo-6,12-dihydroindolo[2,1-b]quinazoline-8-carboxamide] | – |
| 50 to 500 | 50 to 500 | CNC(=O)c1ccc2c(c1)C(=O)c1nc3cc(Cl)cc(Cl)c3c(=O)n1-2 [Compound 20, 1,3-Dichloro-N-methyl-6,12-dioxo-6,12-dihydroindolo[2,1-b]quinazoline-8-carboxamide] | – |
| < 50 | < 50 | O=[N+]([O-])c1ccc2c(c1)C(O)C1Nc3cc(F)ccc3CN21 (stereo not shown) [Compound 21, 3-Fluoro-8-nitro-5H,5aH,6H,12H-indolo[2,1-b]quinazolin-6-ol] | – |
| > 500 | > 500 | O=C(O)c1ccc2c(c1)C(=O)c1nc3cc(Cl)cc(Cl)c3c(=O)n1-2 [Compound 22, 1,3-Dichloro-6,12-dioxoindolo[2,1-b]quinazoline-8-carboxylic Acid] | – |
| 50 to 500 | 50 to 500 | NC(=O)c1ccc2c(c1)C(=O)c1nc3cc(Cl)cc(Cl)c3c(=O)n1-2 [Compound 23, 1,3-Dichloro-6,12-dioxoindolo[2,1-b]quinazoline-8-carboxamide] | – |
| 50 to 500 | 50 to 500 | CN(C)C(=O)c1ccc2c(c1)C(=O)c1nc3cc(Cl)cc(Cl)c3c(=O)n1-2 [Compound 24, 1,3-Dichloro-N,N-dimethyl-6,12-dioxo-6,12-dihydroindolo[2,1-b]quinazoline-8-carboxamide] | – |
| 50 to 500 | 50 to 500 | O=C1c2cc(C(=O)N3CCNCC3)ccc2-n2c1nc1cc(Cl)cc(Cl)c1c2=O [Compound 25, 1,3-dichloro-8-(piperazine-1-carbonyl)indolo[2,1-b]quinazoline-6,12-dione] | – |
| 50 to 500 | > 500 | CC(C)(C)OC(=O)N1CCN(C(=O)c2ccc3c(c2)C(=O)c2nc4cc(Cl)cc(Cl)c4c(=O)n2-3)CC1 [Compound 26, tert-Butyl 4-(1,3-dichloro-6,12-dioxo-6,12-dihydroindolo[2,1-b]quinazoline-8-carbonyl)piperazine-1-carboxylate] | – |
| < 50 | 50 to 500 | NS(=O)(=O)c1ccc2c(c1)C(=O)c1nc3cc(F)ccc3c(=O)n1-2 [Compound 27] | – |
| < 50 | 50 to 500 | O=C1c2cc(SCc3ccccc3)ccc2-n2c1nc1cc(F)ccc1c2=O [Compound 28] | – |
| > 500 | > 500 | NS(=O)(=O)NCCNC(=O)c1ccc2c(c1)C(=O)c1nc3cc(Cl)cc(Cl)c3c(=O)n1-2 [Compound 29, 1,3-Dichloro-6,12-dioxo-N-(2-(sulfamoylamino)ethyl)-6,12-dihydroindolo[2,1-b]quinazoline-8-carboxamide] | – |
| < 50 | 50 to 500 | Cc1c(F)ccc2c(=O)n3c(nc12)C(=O)c1cc([N+](=O)[O-])ccc1-3 [Compound 30, 3-Fluoro-4-methyl-8-nitroindolo[2,1-b]quinazoline-6,12-dione] | – |

| SMILES | IC50 [1, 3] [nM] | IC50 [2] [nM] | IC50 [1] [nM] |
| --- | --- | --- | --- |
| O=C(O)c1ccc2c(c1)C(=O)c1nc3cc(Cl)ccc3c(=O)n1-2 [Compound 4, 3-Chloro-6,12-dioxo-6,12-dihydroindolo[2,1-b]quinazoline-8-carboxylic Acid] | > 500 | > 500 | – |
| O=C1c2cc([N+](=O)[O-])ccc2-n2c1nc1cc(F)cc(F)c1c2=O [Compound 11, 1,3-Difluoro-8-nitroindolo[2,1-b]quinazoline-6,12-dione] | – | 50 to 500 | < 50 |
